# Source: patent US20200316023A1, “Method Of Producing Bacterially Derived Indole-3-Propionic Acid And Compositions Comprising Same” (The Procter & Gamble Company, priority 2019, published 2020)
# Experiment: pharmacokinetic studies of IPA dose versus serum IPA levels
# Type: in vivo
# Settings: dose of from about 5 to about 10 mg of IPA
# Procedure: In some aspects, the composition can comprise from about 5 to about 10 mg of IPA per dose of the composition.
smiles,measurement,value
"O=C(O)CCc1c[nH]c2ccccc12 [IPA, Indole-3-propionic acid]",IPA levels in serum relative to endogenous baseline,increase IPA levels in serum beyond endogenous baseline values
